Reference: paper PMC12314051, “Design, antiproliferative potency, and in silico studies of novel 5-methylfuran-3-yl)thio)-3-phenylquinazolin-4(3H)-one based derivatives as potential EGFR inhibitors” (Scientific Reports, 2025)
Values joined by “and” are separate entries in the source; they are usually repeats but may differ in a detail not shown here. Equal values may be shown once.

Key:
[1] = tested on: HCT-116 cells; experiment: MTT cytotoxicity assay, HCT-116; format: cell-based; conditions: Homo sapiens; HCT-116, MTT assay; read-out: IC50 (mean ± SD)
Experimental: (§1) Following the published protocol[75]–[77], the cytotoxic effects of the newly synthesized quinazolinones 1–10 were assessed in vitro using the MTT test method on human liver HepG-2, breast MCF-7, colorectal HCT-116 cancer cell lines, and normal diploid cell line WI-38. There were further details in the supplemetary file.
(§2) The cell lines were obtained from Karolinska Center, Department of Oncology and Pathology, Karolinska Institute and Hospital, Stockholm, Sweden, as follows: human liver HepG-2, breast MCF-7, and colorectal HCT-116 cancer cell lines and human diploid cell line WI-38. Exponentially, cells were placed in 10^4 cells/ well for 24 h, and then fresh medium containing different concentrations of the tested sample. two-fold serial dilution of the tested sample was added using a multichannel pipette. Moreover, all cells were cultivated at 37 °C, 5% CO2 and 95% humidity. Also, incubation of control cells occurred at 37 °C. However, after incubation for 24 h different concentrations of the sample (100, 50, 25, 12.5, 6.25, 3.125, and 1.56 µM) were added, and continued the incubation for 48 h, then, add the crystal violet solution of 1% to each well for 0.5 h to examine viable cells. Rinse the wells using water until no stain. After that, add 30% glacial acetic acid to all wells with shaking plates on a Microplate reader (TECAN, Inc.) to measure the absorbance, using a test wavelength of 490 nm. Besides, compare the treated samples with the control cell. The cytotoxicity was estimated by IC50 in (μM), the concentration that inhibits 50% of growth of cancer cell.

[2] = tested on: HepG-2, HCT-116 and MCF-7 cell lines; experiment: MTT cytotoxicity, all screened cancer cell lines together (SAR summary); format: cell-based, human; conditions: HepG-2, HCT-116 and MCF-7 cell lines
Experimental: […]. In addition, replacement of acetyl group in 2 with pyrazoline moiety with free N-1 in 7 or bound to thiazole in 9, yielded weak activity.
as §1, §2

[3] = tested on: MCF-7 cells; experiment: Apoptosis detection, annexin V-FITC/PI flow cytometry; format: cell-based, human
Experimental: (§3) The treated cells were subsequently analyzed using flow cytometry and annexin-V labeling (Fig. 4, 5, 6).
(§4) Using flow cytometry, the investigation of cell cycle analysis and apoptosis was described[79],[81]. After applying quinazolinone-furan-benzo[b][1,4]diazepine 6b to MCF-7 cells for 24 h, the cells were incubated at 37 °C. The supplemental file contained more information.
(§5) Cell cycle analysis and apoptosis study were carried out using ab139418–Propidium Iodide Flow Cytometry Kit for Cell Cycle Analysis. MCF-7 cells were seeded at 8×10^4 and incubated at 37°C in 5% CO2 overnight. After treatment with the tested compound 10 for 24 h, cell pellets were collected and centrifuged (300 g, 5 min). For cell cycle analysis, cell pellets were fixed with 70% ethanol on ice for 15 min and collected again. The pellets were incubated with propidium iodide (PI) staining solution at room temperature for 1 h and analyzed by a Gallios flow cytometer (Beckman Coulter, Brea, CA, USA). Apoptosis detection was carried out by FITC AnnexinV/PI commercial kit (Becton Dickenson, Franklin Lakes, NJ, USA) following the manufacturer protocol. The samples were analyzed by fluorescence-activated cell sorting (FACS) with a Gallios flow cytometer (Beckman Coulter, Brea, CA, USA) within 1 h after staining. Data were analyzed using Kaluza v 1.2 (Beckman Coulter).

[4] = tested on: Bax; experiment: Bax level in MCF-7 cells; format: cell-based, human; conditions: MCF-7, 3.91 μM, 24 h
Excerpt: (§6) The extrinsic pathway, which is controlled by the death receptor, and the intrinsic pathway, which is handled by the mitochondria, are the two primary mechanisms that govern the cell during apoptosis. The two proteins Bcl-2 and Bax can alter this planned process due to their respective roles as […] (inducer), and the balance between them adjusts cell death. A further vital component that either causes cell death or prevents cell proliferation is the tumor suppressor gene, p53. […] Furthermore, compound 6b increased the amount of p53 protein in MCF-7 treated cells by 7.2 times, while control cells only had 119.65 Pg/mL (Table 3).
(§7) For the promising quinazolinone-furan-benzo[b][1,4]diazepine 6b, the Bax, Bcl-2, and p53 levels in MCF-7 cells were elucidated using the previously disclosed method.
The magnitudes of the apoptotic proteins; BAX and Bcl-2 were evaluated using BIORAD iScript TM One-Step RT-PCR kit with SYBR®Green (BIO-RAD Laboratories, Hercules, CA, US). The method of the applied kit was conducted according to the manufacturer’s protocol and previously reported method. First, mRNA isolation is done using RNeasy extraction kit, up to 1 × 10^7 cells, depending on the cell line. Then Cells were exposed to RNeasy Lysis Buffer (RLT buffer) and homogenized, while ethanol was then supplemented to the mixture to allow selective binding of RNA to the RNeasy membrane. Afterwards, the sample was loaded to the RNeasy mini spin column where total RNA was bound to the membrane while contaminants competently passed through, and high-quality RNA was eluted in RNase-free water. Then, the reaction mixture was incubated in a real-time thermal detection system (Rotorgene) as follows: cDNA synthesis: 10 min at 50 ◦C, iScript reverse transcriptase inactivation: 5 min at 95 ◦C, polymerase chain reaction (PCR) cycling and detection (30–45 cycles): 10s at 95 ^◦C and 30 s at 55 ^◦C to 60 ^◦C (data collection step) and melt curve analysis: 1 min at 95 ◦C and 1 min at 55 ^◦C and 10s at 55 ^◦C (80 cycles, increasing each by 0.5 ^◦C each cycle).

[5] = tested on: WI-38 cells; experiment: MTT cytotoxicity assay, normal WI-38; format: cell-based; conditions: Homo sapiens; normal WI-38, MTT assay; read-out: IC50 (mean ± SD)
Experimental: . […]. Furthermore, the MTT assay was employed to examine the safety profiles of the cytotoxic activity against the normal human diploid cell line WI-38 (Table 1). […]. They could therefore be considered safe chemotherapeutic agents.
as §1, §2

[6] = tested on: HepG-2 cells; experiment: MTT cytotoxicity assay, HepG-2; format: cell-based; conditions: Homo sapiens, HepG2; HepG-2, MTT assay; read-out: IC50 (mean ± SD)
Experimental: as §1, §2

[7] = tested on: p53; experiment: p53 level in MCF-7 cells (ELISA); format: cell-based, human; conditions: MCF-7, 3.91 μM, 24 h
Excerpt: as §6, §7
Human p53 present in MCF-7 cells was determined; using Human p53 ELISA-Kit (CS0070 Sigma) read using spectrophotometer at 450 nm against untreated control cells (negative control) applying the standard protocols of the manufacturers. The samples or standard having human p53 bind to antibodies adsorbed to the microwells. Addition of biotin-conjugated was followed by incubation and addition of dispense of unbound biotin-conjugated streptavidin HRP. Then, the reaction was terminated by adding acid, and the absorbance was measured at 450 nm.

[8] = tested on: MCF-7 cells; experiment: Cell cycle analysis by flow cytometry (PI); format: cell-based, human; conditions: MCF-7, 3.91 μM, 24 h
Experimental: as §3, §4, §5

[9] = tested on: MCF-7 cells; experiment: MTT cytotoxicity assay, MCF-7; format: cell-based; conditions: Homo sapiens, MCF7; MCF-7, MTT assay; read-out: IC50 (mean ± SD)
Experimental: as §1, §2

[10] = biological target: T1, EGFR (Homo sapiens, UniProt P00533); experiment: In vitro EGFR inhibition assay; format: biochemical
T1 construct: purchased Abcam

[11] = tested on: Bcl-2; experiment: Bcl-2 level in MCF-7 cells; format: cell-based, human; conditions: MCF-7, 3.91 μM, 24 h
Excerpt: as §6, §7
The magnitudes of the apoptotic proteins; BAX and Bcl-2 were evaluated using BIORAD iScript TM One-Step RT-PCR kit with SYBR®Green (BIO-RAD Laboratories, Hercules, CA, US). The method of the applied kit was conducted according to the manufacturer’s protocol and previously reported method. First, mRNA isolation is done using RNeasy extraction kit, up to 1 × 10^7 cells, depending on the cell line. Then Cells were exposed to RNeasy Lysis Buffer (RLT buffer) and homogenized, while ethanol was then supplemented to the mixture to allow selective binding of RNA to the RNeasy membrane. […]

[12] = biological target: T2, VEGFR-2 (Homo sapiens, UniProt P35968); experiment: In vitro VEGFR-2 inhibition assay (ELISA kit); format: biochemical; conditions: read-out: IC50 (mean ± SD)
T2 construct: purchased Ray Biotech
Experimental: Quinazolinone-based targets 1, 6b, 8a, and 10 were chosen for further evaluation of their in vitro inhibitory activity against EGFR and VEGFR-2 because of their exceptional cytotoxic outcomes, with the goal of clarifying their mode of action. […]. VEGFR-2 assay: the effect of the most promising cytotoxic compounds 1, 6b, 8a, and 10 was evaluated for their in vitro inhibitory activity against Human VEGFR-2 using ELISA kit according to manufacturer's instructions (Ray Biotech). This assay employs an antibody specific for human VEGFR-2 coated on a 96-well plate. Samples and standards were added to the wells and incubated over night at 4 °C with gentle shaking. The wells were washed and biotinylated antibody was added followed by incubation for one hour at room temperature. After washing away unbound biotinylated antibody, HRP conjugated streptavidin was pipetted to the wells and
incubated at room temperature for 45 min. The wells were then washed; TMB substrate solution was added and incubated for 30 min. The color developed was in proportion to the amount of VEGFR-2 bound. The Stop Solution was added and the intensity of the color was measured at 450 nm. Percent inhibition was calculated by the comparison of compounds treated to control incubations. […]

T1 sequence (P00533 25-1210): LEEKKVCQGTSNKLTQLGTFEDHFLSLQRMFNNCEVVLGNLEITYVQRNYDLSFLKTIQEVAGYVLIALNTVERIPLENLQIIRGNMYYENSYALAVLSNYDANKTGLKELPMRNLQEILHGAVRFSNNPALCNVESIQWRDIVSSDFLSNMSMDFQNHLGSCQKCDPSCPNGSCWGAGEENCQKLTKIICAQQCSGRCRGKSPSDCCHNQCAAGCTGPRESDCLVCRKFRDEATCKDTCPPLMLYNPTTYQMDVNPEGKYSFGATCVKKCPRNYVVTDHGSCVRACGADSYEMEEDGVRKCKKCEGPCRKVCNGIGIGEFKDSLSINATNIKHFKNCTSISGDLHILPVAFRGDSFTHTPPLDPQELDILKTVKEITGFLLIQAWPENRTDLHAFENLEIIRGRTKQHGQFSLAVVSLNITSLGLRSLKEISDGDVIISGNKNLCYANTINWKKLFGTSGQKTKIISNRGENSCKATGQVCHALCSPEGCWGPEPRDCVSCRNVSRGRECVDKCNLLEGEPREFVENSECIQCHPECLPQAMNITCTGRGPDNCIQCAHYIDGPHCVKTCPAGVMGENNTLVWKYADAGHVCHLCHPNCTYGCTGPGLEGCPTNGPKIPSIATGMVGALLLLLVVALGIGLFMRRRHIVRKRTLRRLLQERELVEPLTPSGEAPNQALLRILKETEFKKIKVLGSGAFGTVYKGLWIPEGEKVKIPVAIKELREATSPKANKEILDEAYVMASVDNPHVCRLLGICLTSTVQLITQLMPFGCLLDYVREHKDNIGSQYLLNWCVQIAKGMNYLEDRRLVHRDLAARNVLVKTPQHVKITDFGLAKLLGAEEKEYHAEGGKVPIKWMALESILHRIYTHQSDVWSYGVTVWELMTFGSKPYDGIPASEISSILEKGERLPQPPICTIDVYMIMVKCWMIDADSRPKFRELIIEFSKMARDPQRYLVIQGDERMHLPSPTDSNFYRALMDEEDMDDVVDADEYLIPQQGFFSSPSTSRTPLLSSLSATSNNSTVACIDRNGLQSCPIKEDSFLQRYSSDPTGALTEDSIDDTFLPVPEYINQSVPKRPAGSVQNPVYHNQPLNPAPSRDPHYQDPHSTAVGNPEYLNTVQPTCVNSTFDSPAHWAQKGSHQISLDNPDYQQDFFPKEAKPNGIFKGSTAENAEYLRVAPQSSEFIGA
T2 sequence (P35968 20-1356): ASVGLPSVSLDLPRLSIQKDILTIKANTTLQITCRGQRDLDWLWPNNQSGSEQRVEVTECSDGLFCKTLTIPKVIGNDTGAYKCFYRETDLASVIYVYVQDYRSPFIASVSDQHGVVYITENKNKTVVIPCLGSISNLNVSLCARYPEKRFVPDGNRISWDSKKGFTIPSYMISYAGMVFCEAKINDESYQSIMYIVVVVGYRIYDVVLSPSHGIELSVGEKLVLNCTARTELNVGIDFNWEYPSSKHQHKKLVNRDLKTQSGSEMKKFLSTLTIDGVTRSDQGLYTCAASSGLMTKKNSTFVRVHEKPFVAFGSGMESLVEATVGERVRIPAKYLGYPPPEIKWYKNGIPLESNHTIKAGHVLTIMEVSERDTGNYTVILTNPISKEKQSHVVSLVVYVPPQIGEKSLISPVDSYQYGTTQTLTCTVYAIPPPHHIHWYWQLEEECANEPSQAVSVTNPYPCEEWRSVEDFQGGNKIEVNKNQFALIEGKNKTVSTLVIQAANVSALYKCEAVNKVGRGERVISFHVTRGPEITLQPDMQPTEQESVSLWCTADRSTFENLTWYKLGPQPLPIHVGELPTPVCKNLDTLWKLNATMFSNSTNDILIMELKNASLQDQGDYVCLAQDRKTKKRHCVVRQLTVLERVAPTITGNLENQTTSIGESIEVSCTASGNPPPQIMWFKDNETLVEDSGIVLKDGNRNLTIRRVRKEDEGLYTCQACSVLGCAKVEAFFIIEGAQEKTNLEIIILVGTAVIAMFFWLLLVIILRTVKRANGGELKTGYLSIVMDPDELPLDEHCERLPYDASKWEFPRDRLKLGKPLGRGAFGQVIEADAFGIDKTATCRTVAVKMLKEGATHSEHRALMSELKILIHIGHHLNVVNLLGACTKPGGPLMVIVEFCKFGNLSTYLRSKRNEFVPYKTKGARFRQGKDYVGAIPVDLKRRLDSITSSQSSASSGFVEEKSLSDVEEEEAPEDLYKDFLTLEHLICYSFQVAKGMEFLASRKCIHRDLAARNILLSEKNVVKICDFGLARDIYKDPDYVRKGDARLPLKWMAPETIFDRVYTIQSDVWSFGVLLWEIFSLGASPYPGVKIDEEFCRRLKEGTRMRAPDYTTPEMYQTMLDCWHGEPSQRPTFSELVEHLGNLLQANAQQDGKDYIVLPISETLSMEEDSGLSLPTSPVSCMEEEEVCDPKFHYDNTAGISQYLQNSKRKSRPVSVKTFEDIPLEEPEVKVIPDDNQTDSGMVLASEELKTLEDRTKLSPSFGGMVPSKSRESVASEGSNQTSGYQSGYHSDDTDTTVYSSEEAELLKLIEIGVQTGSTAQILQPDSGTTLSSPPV

SMILES: Cc1occ(Sc2nc3ccccc3c(=O)n2-c2ccccc2)c1C1CC(c2ccco2)Nc2ccccc2N1 (centres unmarked) [Compound 6b, 2-((4-(4-(Furan-2-yl)-2,3,4,5-tetrahydro-1H-benzo[b][1,4]diazepin-2-yl)-5-methylfuran-3-yl)thio)-3-phenylquinazolin-4(3H)-one]
- IC50 [1]: 7.97 ± 0.5 µM
- cytotoxic activity in words (SAR study) [2]: Excellent activity
- Apoptosis Early ([3]; MCF-7, 3.91 μM, 24 h): 8.92%
- Apoptosis Late ([3]; MCF-7, 3.91 μM, 24 h): 15.39%
- Apoptosis Total ([3]; MCF-7, 3.91 μM, 24 h): 29.76
- Necrosis ([3]; MCF-7, 3.91 μM, 24 h): 5.45%
- apoptosis in MCF-7 cells as stated in abstract and conclusion ([3]; MCF-7, flow cytometry): 35.29%
- Bax [4]: 241.60 pg/mL and 241.6 ± 1.33 pg/mL
- Bax/Bcl-2 [4]: 85.67
- rise in Bax levels versus untreated control [4]: 6.3 fold
- IC50 [5]: 41.3 ± 2.5 µM
- IC50 [6]: 5.8 ± 0.4 µM
- P53 [7]: 860.55 ± 2.47 pg/mL
- increase of p53 protein versus control [7]: 7.2 times
- %G0-G1 [8]: 46.68%
- %G2/M [8]: 35.29%
- %S [8]: 18.03%
- IC50 [9]: 3.91 ± 0.2 µM
- selectivity EGFR over VEGFR-2 ([10]; EGFR versus VEGFR-2): substantially more selective for EGFR than VEGFR-2
- IC50 ([10]; EGFR, read-out: IC50 (mean ± SD)): 0.19 ± 0.03 µM
- Bcl-2 [11]: 2.82 ng/mL and 2.82 ± 0.11 ng/mL
- Bcl-2 protein downregulated versus control [11]: 2.6 times
- IC50 [12]: 31.6 ± 1.48 µM
